Assays:
Type in all cases: in vivo
[1] = system: cabbage looper (Trichoplusia ni); assay: Insecticidal test for cabbage looper, treated cabbage leaf disc; conditions: 2nd instar larvae on dipped cabbage leaf discs, 5 days; for pest or weed control at 400 ppm: Trichoplusia ni, foliar, 120 h, read-out: CL: activity against cabbage looper (% Control rating)
Procedure: (§1) Insecticidal test for tobacco budworm (Heliothis virescens), beet armyworm (Spodoptera exigua), and cabbage looper (Trichoplusia ni). To prepare test solution, the test compound was formulated at 400 ppm in 7.5 mL of 2 acetone:1 tap water. 250 μL of the test solution was pipetted upon the surface of 8 mL of lepidopteran diet (modified Shorey) contained in each of five one-ounce plastic cups (one cup=1 replication). […] After air-drying, the treated leaf discs were placed individually into one-ounce plastic cups. Each dried, treated cotton cotyledon disc was infested with a 2nd instar tobacco budworm larva, and each cabbage leaf disc was infested with a 2nd instar cabbage looper larva. Cups containing the treated substrates and larvae were capped and then held in a growth chamber at 25° C., 50-55% RH, and 14 hr light:10 hr dark for 5 days.

[2] = system: two-spotted spider mite (Tetranychus urticae); assay: Insecticidal test for two-spotted spider mite, ovicide method; conditions: ovicide method on cotton leaf discs, 6 days; for pest or weed control at 2.5 ppm: Tetranychus urticae, foliar, 144 h, read-out: SM: activity against two-spotted spider mite (% Control rating)
Procedure: Insecticidal test for two-spotted spider mite (Tetranychus urticae) Ovicide Method: Ten adult female two-spotted spider mites were placed on eight 2.2 cm leaf discs of cotton leaf, allowed to oviposit over 24 hours, and thereafter removed. […] Discs were placed on an agar substrate and held at 24° C. and 90% RH for 6 days.

[3] = system: beet armyworm (Spodoptera exigua); assay: Insecticidal test for beet armyworm, treated lepidopteran diet; conditions: 2nd instar larvae on treated diet, 5 days; for pest or weed control at 400 ppm: Spodoptera exigua, 120 h, read-out: BAW: activity against beet armyworm (% Control rating)
Procedure: as §1

[4] = system: Sweetpotato Whitefly (Bemisia tabacia); assay: Insecticidal test for Sweetpotato Whitefly, sprayed cotton plants; conditions: 200 ppm spray, large nymphs counted after 13 days
Procedure: Insecticidal test for Sweetpotato Whitefly (Bemisia tabacia) Four mg of each test compound were dissolved by adding 4 mL of a 90:10 acetone:ethanol solvent mixture to the vial containing the sample compound. This solution was added to 16 mL of water containing 0.05% Tween 20 surfactant to produce 20 mL of a 200 ppm spray solution. Five-week-old cotton plants reared in a greenhouse were stripped of all foliage except for the two uppermost true leaves that were greater than 5 cm in diameter. These plants were then placed into a laboratory colony of whiteflies for two days for oviposition by the colony females. All whiteflies were then removed from the test plants with pressurized air. The spray solution was then applied to the test plants with a hand-held syringe fitted with hollow cone nozzle. One mL spray solution was applied to each leaf top and bottom for a total of 4 mL per plant. Four replications of each test compound utilized a total of 16 mL spray solution. Plants were air dried and then placed in a holding chamber (28° C. and 60% RH) for 13 days. Compound efficacy was evaluated by counting, under an illuminated magnifying glass, the number of large nymphs (3rd-4th instar) per leaf. Percent control based on reduction of large nymphs of a test compound compared to solution-only (no test compound) sprayed plants is reported in Table 1-8.

[5] = system: tobacco budworm (Heliothis virescens); assay: Insecticidal test for tobacco budworm, treated cotton cotyledon leaf disc; conditions: 2nd instar larvae on dipped cotton cotyledon discs, 5 days; for pest or weed control at 400 ppm: Heliothis virescens, foliar, 120 h, read-out: TBW: activity against tobacco budworm (% Control rating)
Procedure: as §1

[6] = system: cotton aphid (Aphis gossypii); assay: Insecticidal test for cotton aphid, sprayed squash cotyledons; conditions: 50 ppm spray, graded after 3 days
Procedure: Insecticidal test for cotton aphid (Aphis gossypii) To prepare spray solutions, 1 mg of each test compound was dissolved into 1 mL of a 90:10 acetone:ethanol solvent. This 1 mL of chemical solution was added to 19 mL of water containing 0.05% Tween 20 surfactant to produce a 50 ppm spray solution. Squash cotyledons were infested with cotton aphid (all life stages) 16-20 hours prior to application of spray solution. The solution was sprayed on both sides of each infested squash cotyledon (0.5 mL×2 each side) with a sweeping action until runoff. The plants were allowed to air dry and held for 3 days in a controlled room at 26° C. and 40% RH after which time the test was graded. Grading was by actual count using a dissecting microscope and comparison of test counts to the untreated check.

| SMILES | pest or weed control at 400 ppm [1] | pest or weed control at 2.5 ppm [2] | pest or weed control at 400 ppm [3] | pest or weed control at 400 ppm [5] | further results |
| --- | --- | --- | --- | --- | --- |
| C[C@@H]1OC(c2c(F)cccc2F)=N[C@@H]1c1ccc(-c2ccc(C(F)(F)F)cc2)cc1 (mixture of isomers) [Compound 5, (4R,5S)- and 4S,5R)-2-(2,6-difluorophenyl)-5-methyl-4-[4′-(trifluoromethyl)-1,1′-biphenyl-4-yl]-4,5-dihydro-1,3-oxazole] | 90 to 100% | 90 to 100% | 90 to 100% | – | – |
| C[C@H]1OC(c2c(F)cccc2F)=N[C@H]1c1ccc(-c2ccc(OC(F)(F)F)cc2)cc1 (racemic) [Compound 6, (4S,5R)- and (4R,5S)-2-(2,6-difluorophenyl)-4-(4′-trifluoromethoxy-1,1′-biphenyl-4-yl)-5-methyl-4,5-dihydro-1,3-oxazole] | – | – | – | – | WF: activity against whitefly (% Control rating) [4]: B (80-89) |
| Cc1ccc(-c2ccc([C@@H]3N=C(c4c(F)cccc4F)O[C@@H]3C)cc2)cc1C (racemic) [Compound 8, (4S,5R)- and (4R,5S)-2-(2,6-difluorophenyl)-4-(3′,4′-dimethyl-1,1′-biphenyl-4-yl)-5-methyl-4,5-dihydro-1,3-oxazole] | 90 to 100% | – | 90 to 100% | 60 to 69% | – |
| CCOc1ccc(-c2ccc([C@H]3N=C(c4c(F)cccc4F)O[C@H]3C)cc2)cc1 (racemic) [Compound 12, (4R,5S)- and (4S,5R)-2-(2,6-difluorophenyl)-4-(4′-ethoxy-1,1′-biphenyl-4-yl)-5-methyl-4,5-dihydro-1,3-oxazole] | 90 to 100% | – | 90 to 100% | 80 to 89% | – |
| C[C@H]1OC(c2c(F)cccc2F)=NC1c1ccc(-c2ccc3c(c2)OC(F)(F)O3)cc1 (mixture of isomers) [Compound 13, (4R,5S)- and (4S,5R)-4-[4-(2,2-difluoro-1,3-benzodioxol-5-yl)phenyl]-2-(2,6-difluorophenyl)-5-methyl-4,5-dihydro-1,3-oxazole] | 90 to 100% | – | – | < 50% | – |
| C[C@@H]1OC(c2c(F)cccc2F)=N[C@@H]1c1ccc(-c2ccccc2F)cc1 (racemic) [Compound 15, (4R,5S)- and (4S,5R)-2-(2,6-difluorophenyl)-4-(2′-fluoro-1,1′-biphenyl-4-yl)-5-methyl-4,5-dihydro-1,3-oxazole] | 90 to 100% | – | – | – | – |
| Cc1ccccc1C1=N[C@H](c2ccc(Br)cc2)[C@H](C)O1 (racemic) [Compound 17, (4R,5S)- and (4S,5R)-4-(4-bromophenyl)-2-(2-methyl)-5-methyl-4,5-dihydro-1,3-oxazole] | < 50% | – | – | < 50% | – |
| C[C@H]1OC(c2c(F)cccc2F)=N[C@@H]1c1ccc(I)cc1 (racemic) [Compound 22, (4R,5R)- and (4S,5S)-4-(4-iodophenyl)-2-(2,6-difluorophenyl)-5-methyl-4,5-dihydro-1,3-oxazole] | – | 90 to 100% | – | – | CA: activity against cotton aphid (% Control rating) [6]: A (90-100) |
| C[C@H]1OC(c2c(F)cccc2Cl)=N[C@@H]1c1ccc(Br)cc1 (racemic) [Compound 23, (4R,5R)- and (4S,5S)-4-(4-bromophenyl)-2-(2-chloro-6-fluorophenyl)-5-methyl-4,5-dihydro-1,3-oxazole] | < 50% | 90 to 100% | – | 80 to 89% | – |
| C[C@@H]1OC(c2c(F)cccc2F)=N[C@H]1c1ccc(-c2ccc(C(F)(F)F)cc2)cc1 (racemic) [Compound 26, (4S,5S)- and (4R,5R)-2-(2,6-difluorophenyl)-5-methyl-4-[4′-(trifluoromethyl)-1,1′-biphenyl-4-yl]-4,5-dihydro-1,3-oxazole] | 90 to 100% | 90 to 100% | 90 to 100% | – | – |
| C[C@H]1OC(c2c(F)cccc2F)=N[C@@H]1c1ccc(-c2ccc(OC(F)(F)F)cc2)cc1 (racemic) [Compound 27, (4R,5R)- and (4S,5S)-2-(2,6-difluorophenyl)-4-(4′-trifluoromethoxy-1,1′-biphenyl-4-yl)-5-methyl-4,5-dihydro-1,3-oxazole] | – | – | – | – | CL: activity against cabbage looper (% Control rating) ([1]; 400 ppm): A (90-100); SM: activity against two-spotted spider mite (% Control rating) ([2]; 2.5 ppm): A (90-100); BAW: activity against beet armyworm (% Control rating) ([3]; 400 ppm): A (90-100); TBW: activity against tobacco budworm (% Control rating) ([5]; 400 ppm): B (80-89) |
| Cc1ccc(-c2ccc([C@@H]3N=C(c4c(F)cccc4F)O[C@H]3C)cc2)cc1C (racemic) [Compound 29, (4S,5S)- and (4R,5R)-2-(2,6-difluorophenyl)-4-(3′,4′-dimethyl-1,1′-biphenyl-4-yl)-5-methyl-4,5-dihydro-1,3-oxazole] | 90 to 100% | – | – | – | – |
| C[C@@H]1OC(c2c(F)cccc2F)=N[C@H]1c1ccc(-c2ccccc2F)cc1 (racemic) [Compound 31, (4S,5S)- and (4R,5R)-2-(2,6-difluorophenyl)-4-(2′-fluoro-1,1′-biphenyl-4-yl)-5-methyl-4,5-dihydro-1,3-oxazole] | 90 to 100% | – | – | – | – |
| CCOc1ccc(-c2ccc([C@@H]3N=C(c4c(F)cccc4F)O[C@H]3C)cc2)cc1 (racemic) [Compound 33, (4S,5S)- and (4R,5R)-2-(2,6-difluorophenyl)-4-(4′-ethoxy-1,1′-biphenyl-4-yl)-5-methyl-4,5-dihydro-1,3-oxazole] | 90 to 100% | – | 90 to 100% | 80 to 89% | – |
| C[C@H]1OC(c2c(F)cccc2F)=N[C@@H]1c1ccccc1 (racemic) [Compound 35, (4R,5R)- and (4S,5S)-4-phenyl-2-(2,6-difluorophenyl)-5-methyl-4,5-dihydro-1,3-oxazole] | < 50% | – | – | < 50% | – |
| C[C@H]1OC(c2c(F)cccc2F)=N[C@H]1c1ccc(-c2ccc(OC(F)(F)F)cc2)cc1 (stereo in doubt) [Compound 49, (4S,5R)-2-(2,6-difluorophenyl)-5-methyl-4-[4′-(trifluoromethoxy)-1,1′-biphenyl-4-yl]-4,5-dihydro-1,3-oxazole] | 90 to 100% | 90 to 100% | 90 to 100% | 80 to 89% | pest or weed control at 200 ppm ([4]; Bemisia, 312 h, read-out: WF: activity against whitefly (% Control rating)): 80 to 89% |
| C[C@@H]1OC(c2c(F)cccc2F)=N[C@@H]1c1ccc(-c2ccc(OC(F)(F)F)cc2)cc1 (stereo in doubt) [Compound 51, (4R,5S)-2-(2,6-difluorophenyl)-5-methyl-4-[4′-(trifluoromethoxy)-1,1′-biphenyl-4-yl]-4,5-dihydro-1,3-oxazole] | 90 to 100% | 90 to 100% | 90 to 100% | 80 to 89% | CA: activity against cotton aphid (% Control rating) [6]: F (less than 50) |
| C[C@@H]1OC(c2c(F)cccc2F)=N[C@H]1c1ccc(-c2ccc(OC(F)(F)F)cc2)cc1 [Compound 47, (4S,5S)-2-(2,6-difluorophenyl)-5-methyl-4-[4′-(trifluoromethoxy)-1,1′-biphenyl-4-yl]-4,5-dihydro-1,3-oxazole] | 90 to 100% | 90 to 100% | 90 to 100% | – | – |
| C[C@H]1OC(c2c(F)cccc2F)=N[C@@H]1c1ccc(-c2ccc(OC(F)(F)F)cc2)cc1 [Compound 53, (4R,5R)-2-(2,6-difluorophenyl)-5-methyl-4-[4′-(trifluoromethoxy)-1,1′-biphenyl-4-yl]-4,5-dihydro-1,3-oxazole] | 90 to 100% | 90 to 100% | 90 to 100% | – | – |

— US6573286B1, “2-(2,6-disubstituted phenyl)-4-aryl-5-alkyl-1,3-oxazoline compounds” (Dow AgroSciences LLC, priority 2002, dated 2003)
